Results taken from PubChem BioAssay (NCI).
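Exposure lasted 48 hours, with cells grown in 96-well plates and compounds tested at five concentrations. The concentration for 50% growth inhibition is given as GI50. TGI is the concentration that stops growth completely.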

Assays:
Experiment in all cases: growth of human tumour cells (NCI), 48 h
[1] = tested on: OVCAR-8 ovarian
[2] = tested on: UACC-62 melanoma
[3] = tested on: HL-60(TB) leukemia
[4] = tested on: 786-0 renal
[5] = tested on: MCF7 breast
[6] = tested on: NCI/ADR-RES ovarian
[7] = tested on: COLO 205 colon
[8] = tested on: TK-10 renal
[9] = tested on: K-562 leukemia
[10] = tested on: LOX IMVI melanoma
[11] = tested on: OVCAR-4 ovarian
[12] = tested on: NCI-H226 lung
[13] = tested on: SK-MEL-5 melanoma
[14] = tested on: SK-MEL-2 melanoma
[15] = tested on: SF-539 CNS
[16] = tested on: NCI-H522 lung
[17] = tested on: MOLT-4 leukemia
[18] = tested on: NCI-H460 lung
[19] = tested on: HT29 colon
[20] = tested on: SNB-75 CNS
[21] = tested on: EKVX NSCLC
[22] = tested on: HOP-92 NSCLC
[23] = tested on: HCT-116 colon
[24] = tested on: HCC-2998 colon
[25] = tested on: HOP-62 NSCLC
[26] = tested on: SR leukemia
[27] = tested on: RPMI-8226 leukemia
[28] = tested on: MDA-MB-231 breast
[29] = tested on: CCRF-CEM leukemia
[30] = tested on: DU-145 prostate
[31] = tested on: SN12C renal
[32] = tested on: SNB-19 CNS
[33] = tested on: T-47D breast
[34] = tested on: M14 melanoma
[35] = tested on: UACC-257 melanoma
[36] = tested on: HCT-15 colon
[37] = tested on: PC-3 prostate
[38] = tested on: SK-OV-3 ovarian
[39] = tested on: SK-MEL-28 melanoma
[40] = tested on: MDA-MB-435
[41] = tested on: UO-31 renal
[42] = tested on: OVCAR-5 ovarian
[43] = tested on: BT-549 breast
[44] = tested on: ACHN renal
[45] = tested on: SF-295 CNS
[46] = tested on: MALME-3M melanoma
[47] = tested on: IGROV1 ovarian
[48] = tested on: KM12 colon
[49] = tested on: A498 renal
[50] = tested on: SW-620 colon
[51] = tested on: A549 NSCLC
[52] = tested on: CAKI-1 renal
[53] = tested on: RXF 393 renal
[54] = tested on: U251 CNS
[55] = tested on: NCI-H23 lung
[56] = tested on: SF-268 CNS
[57] = tested on: HS 578T breast

How did the GI50 [1] turn out when `O=C(NNc1nc2cc(F)ccc2n2c(CO)ccc12)c1cnccn1` was run?
The GI50 was 343 nM.

What about the TGI [1] of the same molecule?
The TGI was > 31900 nM.

What about the GI50 [2] of the same molecule?
The GI50 was 481 nM.

And the TGI [2]?
The TGI was 11200 nM.

What about the GI50 [3] of the same molecule?
The GI50 was 435 nM.

What about the TGI [3] of the same molecule?
The TGI was > 38000 nM.

What about the GI50 [4] of the same molecule?
The GI50 was 387 nM.

What about the TGI [4] of the same molecule?
Its TGI is 11900 nM.

What about the GI50 [5] of the same molecule?
Its GI50 is 541 nM.

And the TGI [5]?
Its TGI is 36000 nM.

And the GI50 [6]?
The GI50 was 243 nM.

What about the TGI [6] of the same molecule?
Its TGI is > 24900 nM.

What about the GI50 [7] of the same molecule?
The GI50 was 368 nM.

What about the TGI [7] of the same molecule?
The TGI was > 38500 nM.

And the GI50 [8]?
The GI50 was 504 nM.

And the TGI [8]?
Its TGI is > 100000 nM.

What about the GI50 [9] of the same molecule?
The GI50 was 508 nM.

And the TGI [9]?
The TGI was > 100000 nM.

What about the GI50 [10] of the same molecule?
Its GI50 is 317 nM.

And the TGI [10]?
The TGI was 4080 nM.

And the GI50 [11]?
Its GI50 is 534 nM.

And the TGI [11]?
Its TGI is > 83100 nM.

What about the GI50 [12] of the same molecule?
Its GI50 is 367 nM.

What about the TGI [12] of the same molecule?
The TGI was 10800 nM.

What about the GI50 [13] of the same molecule?
The GI50 was 481 nM.

What about the TGI [13] of the same molecule?
The TGI was 3610 nM.

And the GI50 [14]?
Its GI50 is 1900 nM.

What about the TGI [14] of the same molecule?
Its TGI is 56400 nM.

And the GI50 [15]?
Its GI50 is 489 nM.

And the TGI [15]?
The TGI was > 100000 nM.

What about the GI50 [16] of the same molecule?
Its GI50 is 1010 nM.

What about the TGI [16] of the same molecule?
Its TGI is 8070 nM.

What about the GI50 [17] of the same molecule?
The GI50 was 407 nM.

What about the TGI [17] of the same molecule?
The TGI was > 100000 nM.

And the GI50 [18]?
The GI50 was 245 nM.

What about the TGI [18] of the same molecule?
The TGI was 11000 nM.

What about the GI50 [19] of the same molecule?
The GI50 was 552 nM.

What about the TGI [19] of the same molecule?
Its TGI is > 100000 nM.

What about the GI50 [20] of the same molecule?
Its GI50 is 986 nM.

And the TGI [20]?
The TGI was 27300 nM.

What about the GI50 [21] of the same molecule?
Its GI50 is 408 nM.

What about the TGI [21] of the same molecule?
Its TGI is > 57200 nM.

And the GI50 [22]?
The GI50 was 1400 nM.

And the TGI [22]?
The TGI was 63800 nM.

And the GI50 [23]?
The GI50 was 345 nM.

What about the TGI [23] of the same molecule?
The TGI was > 42900 nM.

What about the GI50 [24] of the same molecule?
The GI50 was 568 nM.

And the TGI [24]?
Its TGI is > 100000 nM.

And the GI50 [25]?
Its GI50 is 344 nM.

And the TGI [25]?
Its TGI is > 32800 nM.

What about the GI50 [26] of the same molecule?
Its GI50 is 448 nM.

And the TGI [26]?
Its TGI is > 100000 nM.

And the GI50 [27]?
The GI50 was 721 nM.

And the TGI [27]?
Its TGI is > 57600 nM.

What about the GI50 [28] of the same molecule?
Its GI50 is 633 nM.

What about the TGI [28] of the same molecule?
Its TGI is > 100000 nM.

And the GI50 [29]?
Its GI50 is 395 nM.

What about the TGI [29] of the same molecule?
Its TGI is > 60400 nM.

What about the GI50 [30] of the same molecule?
The GI50 was 780 nM.

And the TGI [30]?
Its TGI is > 100000 nM.

And the GI50 [31]?
The GI50 was 704 nM.

And the TGI [31]?
Its TGI is > 100000 nM.

What about the GI50 [32] of the same molecule?
Its GI50 is 665 nM.

And the TGI [32]?
The TGI was > 100000 nM.

What about the GI50 [33] of the same molecule?
The GI50 was 837 nM.

What about the TGI [33] of the same molecule?
The TGI was > 52600 nM.

And the GI50 [34]?
The GI50 was 292 nM.

What about the TGI [34] of the same molecule?
Its TGI is 4050 nM.

And the GI50 [35]?
The GI50 was 1160 nM.

What about the TGI [35] of the same molecule?
The TGI was 6050 nM.

What about the GI50 [36] of the same molecule?
Its GI50 is 69.1 nM.

And the TGI [36]?
Its TGI is > 45700 nM.

What about the GI50 [37] of the same molecule?
Its GI50 is 780 nM.

What about the TGI [37] of the same molecule?
Its TGI is > 100000 nM.

And the GI50 [38]?
Its GI50 is 543 nM.

And the TGI [38]?
Its TGI is 18200 nM.

What about the GI50 [39] of the same molecule?
Its GI50 is 595 nM.

And the TGI [39]?
Its TGI is > 100000 nM.

What about the GI50 [40] of the same molecule?
Its GI50 is 712 nM.

And the TGI [40]?
Its TGI is > 100000 nM.

What about the GI50 [41] of the same molecule?
Its GI50 is 68.9 nM.

And the TGI [41]?
Its TGI is 5050 nM.

And the GI50 [42]?
Its GI50 is 1360 nM.

What about the TGI [42] of the same molecule?
Its TGI is > 100000 nM.

What about the GI50 [43] of the same molecule?
The GI50 was 667 nM.

And the GI50 [44]?
Its GI50 is 111 nM.

And the TGI [44]?
Its TGI is 12200 nM.

And the GI50 [45]?
The GI50 was 295 nM.

And the TGI [45]?
Its TGI is > 100000 nM.

What about the GI50 [46] of the same molecule?
Its GI50 is 1070 nM.

What about the TGI [46] of the same molecule?
Its TGI is 20200 nM.

And the GI50 [47]?
The GI50 was 509 nM.

And the TGI [47]?
Its TGI is 29500 nM.

What about the GI50 [48] of the same molecule?
The GI50 was 432 nM.

What about the TGI [48] of the same molecule?
Its TGI is > 100000 nM.

And the GI50 [49]?
Its GI50 is 1160 nM.

What about the TGI [49] of the same molecule?
Its TGI is 4990 nM.

And the GI50 [50]?
The GI50 was 649 nM.

And the TGI [50]?
Its TGI is > 100000 nM.

What about the GI50 [51] of the same molecule?
The GI50 was 471 nM.

And the TGI [51]?
The TGI was > 55800 nM.

And the GI50 [52]?
The GI50 was 281 nM.

And the TGI [52]?
Its TGI is > 100000 nM.

And the GI50 [53]?
Its GI50 is 557 nM.

What about the TGI [53] of the same molecule?
Its TGI is 10000 nM.

What about the GI50 [54] of the same molecule?
The GI50 was 390 nM.

What about the TGI [54] of the same molecule?
The TGI was > 100000 nM.

And the GI50 [55]?
Its GI50 is 895 nM.

And the TGI [55]?
The TGI was > 100000 nM.

What about the GI50 [56] of the same molecule?
The GI50 was 516 nM.

What about the TGI [56] of the same molecule?
The TGI was > 100000 nM.

And the GI50 [57]?
The GI50 was 4310 nM.

What about the TGI [57] of the same molecule?
Its TGI is > 100000 nM.
